In brackets after ≈: the same amount, converted by molar mass.
test system: Burkholderia cepacia; test: Ratio of compound MIC to ciprofloxacin MIC for Burkholderia cepacia BIG 119 after 18 hrs by micro dilution method; type: functional; conditions: not given

SMILES	Ratio
O=C(O)CC(O)(CC(=O)NCC(=O)N1CCN(c2cc3c(cc2F)c(=O)c(C(=O)O)cn3C2CC2)CC1)C(=O)O (racemic)	4.7

test system: Stenotrophomonas maltophilia; test: Ratio of compound MIC to ciprofloxacin MIC for Stenotrophomonas maltophilia N1127 after 18 hrs by micro dilution method; type: functional; conditions: not given

SMILES	Ratio
O=C(O)CC(O)(CC(=O)NCC(=O)N1CCN(c2cc3c(cc2F)c(=O)c(C(=O)O)cn3C2CC2)CC1)C(=O)O (racemic)	9.4

test system: Burkholderia cepacia; test: Ratio of compound MIC to ciprofloxacin MIC for Burkholderia cepacia BIG 118 after 18 hrs by micro dilution method; type: functional; conditions: not given

SMILES	Ratio
O=C(O)CC(O)(CC(=O)NCC(=O)N1CCN(c2cc3c(cc2F)c(=O)c(C(=O)O)cn3C2CC2)CC1)C(=O)O (racemic)	18.8

test system: Burkholderia cepacia; test: Antimicrobial activity against Burkholderia cepacia BIG 9 NCTC 10744 after 18 hrs by micro dilution method; type: functional; conditions: BIG 9 NCTC 10744, 18 h

MIC [µg/mL]	SMILES
8 (≈ 14.2 µM)	O=C(O)CC(O)(CC(=O)NCC(=O)N1CCN(c2cc3c(cc2F)c(=O)c(C(=O)O)cn3C2CC2)CC1)C(=O)O (racemic)

test system: Pseudomonas aeruginosa; test: Antimicrobial activity against Pseudomonas aeruginosa BIG 63 after 18 hrs by micro dilution method; type: functional; conditions: BIG 63, 18 h

MIC [µg/mL]	SMILES
8 (≈ 14.2 µM)	O=C(O)CC(O)(CC(=O)NCC(=O)N1CCN(c2cc3c(cc2F)c(=O)c(C(=O)O)cn3C2CC2)CC1)C(=O)O (racemic)

test system: Escherichia coli; test: Antimicrobial activity against Escherichia coli BIG 0046 after 18 hrs by micro dilution method; type: functional; conditions: BIG 0046, 18 h

MIC [µg/mL]	SMILES
36 (≈ 64 µM)	O=C(O)CC(O)(CC(=O)NCC(=O)N1CCN(c2cc3c(cc2F)c(=O)c(C(=O)O)cn3C2CC2)CC1)C(=O)O (racemic)

test system: Pseudomonas aeruginosa; test: Ratio of compound MIC to ciprofloxacin MIC for Pseudomonas aeruginosa BIG 37 clinical isolate after 18 hrs by micro dilution method; type: functional; conditions: not given

SMILES	Ratio
O=C(O)CC(O)(CC(=O)NCC(=O)N1CCN(c2cc3c(cc2F)c(=O)c(C(=O)O)cn3C2CC2)CC1)C(=O)O (racemic)	4.7

test system: Staphylococcus epidermidis; test: Antimicrobial activity against Staphylococcus epidermidis NCTC 11047 after 18 hrs by micro dilution method; type: functional; conditions: NCTC 11047, 18 h

MIC [µg/mL]	SMILES
16 (≈ 28.4 µM)	O=C(O)CC(O)(CC(=O)NCC(=O)N1CCN(c2cc3c(cc2F)c(=O)c(C(=O)O)cn3C2CC2)CC1)C(=O)O (racemic)

test system: Staphylococcus aureus; test: Antimicrobial activity against Staphylococcus aureus NCTC 13142 after 18 hrs by micro dilution method; type: functional; conditions: NCTC 13142, 18 h

MIC [µg/mL]	SMILES
16 (≈ 28.4 µM)	O=C(O)CC(O)(CC(=O)NCC(=O)N1CCN(c2cc3c(cc2F)c(=O)c(C(=O)O)cn3C2CC2)CC1)C(=O)O (racemic)

test system: Stenotrophomonas maltophilia; test: Antimicrobial activity against Stenotrophomonas maltophilia N1124 after 18 hrs by micro dilution method; type: functional; conditions: N1124, 18 h

MIC [µg/mL]	SMILES
32 (≈ 56.9 µM)	O=C(O)CC(O)(CC(=O)NCC(=O)N1CCN(c2cc3c(cc2F)c(=O)c(C(=O)O)cn3C2CC2)CC1)C(=O)O (racemic)

test system: Burkholderia cepacia; test: Antimicrobial activity against Burkholderia cepacia BIG 121 after 18 hrs by micro dilution method; type: functional; conditions: BIG 121, 18 h

MIC [µg/mL]	SMILES
> 36	O=C(O)CC(O)(CC(=O)NCC(=O)N1CCN(c2cc3c(cc2F)c(=O)c(C(=O)O)cn3C2CC2)CC1)C(=O)O (racemic)

test system: Staphylococcus haemolyticus; test: Ratio of compound MIC to ciprofloxacin MIC for Staphylococcus haemolyticus NCTC 11042 after 18 hrs by micro dilution method; type: functional; conditions: not given

SMILES	Ratio
O=C(O)CC(O)(CC(=O)NCC(=O)N1CCN(c2cc3c(cc2F)c(=O)c(C(=O)O)cn3C2CC2)CC1)C(=O)O (racemic)	75.3

test system: Pseudomonas aeruginosa; test: Antimicrobial activity against Pseudomonas aeruginosa BIG 37 clinical isolate after 18 hrs by micro dilution method; type: functional; conditions: BIG 37, 18 h

MIC [µg/mL]	SMILES
16 (≈ 28.4 µM)	O=C(O)CC(O)(CC(=O)NCC(=O)N1CCN(c2cc3c(cc2F)c(=O)c(C(=O)O)cn3C2CC2)CC1)C(=O)O (racemic)

test system: Stenotrophomonas maltophilia; test: Ratio of compound MIC to ciprofloxacin MIC for Stenotrophomonas maltophilia N1124 after 18 hrs by micro dilution method; type: functional; conditions: not given

SMILES	Ratio
O=C(O)CC(O)(CC(=O)NCC(=O)N1CCN(c2cc3c(cc2F)c(=O)c(C(=O)O)cn3C2CC2)CC1)C(=O)O (racemic)	4.7

test system: Staphylococcus aureus; test: Antimicrobial activity against Staphylococcus aureus HG-1 after 18 hrs by micro dilution method; type: functional; conditions: HG-1, 18 h

MIC [µg/mL]	SMILES
> 36	O=C(O)CC(O)(CC(=O)NCC(=O)N1CCN(c2cc3c(cc2F)c(=O)c(C(=O)O)cn3C2CC2)CC1)C(=O)O (racemic)

test system: Burkholderia cepacia; test: Ratio of compound MIC to ciprofloxacin MIC for Burkholderia cepacia BIG 117 after 18 hrs by micro dilution method; type: functional; conditions: not given

SMILES	Ratio
O=C(O)CC(O)(CC(=O)NCC(=O)N1CCN(c2cc3c(cc2F)c(=O)c(C(=O)O)cn3C2CC2)CC1)C(=O)O (racemic)	4.7

test system: Staphylococcus aureus; test: Ratio of compound MIC to ciprofloxacin MIC for Staphylococcus aureus NCTC 13142 after 18 hrs by micro dilution method; type: functional; conditions: not given

SMILES	Ratio
O=C(O)CC(O)(CC(=O)NCC(=O)N1CCN(c2cc3c(cc2F)c(=O)c(C(=O)O)cn3C2CC2)CC1)C(=O)O (racemic)	18.8

test system: Staphylococcus aureus; test: Ratio of compound MIC to ciprofloxacin MIC for Staphylococcus aureus BIG 52 after 18 hrs by micro dilution method; type: functional; conditions: not given

SMILES	Ratio
O=C(O)CC(O)(CC(=O)NCC(=O)N1CCN(c2cc3c(cc2F)c(=O)c(C(=O)O)cn3C2CC2)CC1)C(=O)O (racemic)	18.8

test system: Staphylococcus aureus; test: Antimicrobial activity against Staphylococcus aureus BIG 52 after 18 hrs by micro dilution method; type: functional; conditions: BIG 52, 18 h

MIC [µg/mL]	SMILES
16 (≈ 28.4 µM)	O=C(O)CC(O)(CC(=O)NCC(=O)N1CCN(c2cc3c(cc2F)c(=O)c(C(=O)O)cn3C2CC2)CC1)C(=O)O (racemic)

test system: Burkholderia cepacia; test: Ratio of compound MIC to ciprofloxacin MIC for Burkholderia cepacia BIG 9 NCTC 10744 after 18 hrs by micro dilution method; type: functional; conditions: not given

SMILES	Ratio
O=C(O)CC(O)(CC(=O)NCC(=O)N1CCN(c2cc3c(cc2F)c(=O)c(C(=O)O)cn3C2CC2)CC1)C(=O)O (racemic)	9.4

test system: Burkholderia cepacia; test: Antimicrobial activity against Burkholderia cepacia BIG 119 after 18 hrs by micro dilution method; type: functional; conditions: BIG 119, 18 h

MIC [µg/mL]	SMILES
32 (≈ 56.9 µM)	O=C(O)CC(O)(CC(=O)NCC(=O)N1CCN(c2cc3c(cc2F)c(=O)c(C(=O)O)cn3C2CC2)CC1)C(=O)O (racemic)

test system: Staphylococcus aureus; test: Antimicrobial activity against Staphylococcus aureus NCTC 13143 after 18 hrs by micro dilution method; type: functional; conditions: NCTC 13143, 18 h

MIC [µg/mL]	SMILES
> 36	O=C(O)CC(O)(CC(=O)NCC(=O)N1CCN(c2cc3c(cc2F)c(=O)c(C(=O)O)cn3C2CC2)CC1)C(=O)O (racemic)

— ChEMBL document CHEMBL3351986, “Probing linker design in citric acid-ciprofloxacin conjugates” (2014)
